According to patent publication US11865099B2, “Product based on iron bis-glycinate chelate and alginic acid and/or water-soluble salts thereof, formulations thereof, and pharmaceutical uses thereof” (LABORATORI BALDACCI S.P.A., priority 2015, dated 2024):

Assay: Iron dissolution test, rotating basket apparatus, sample in dialysis membrane, 0.01 N HCl
Type: physicochemical
Conditions: for percentage of dissolved iron: after 120 minutes; for dissolution rate: sample in 1.0 ml 0.01 N HCl (method A) in dialysis membrane, linear trend
[1] = 1.0 ml 0.01 N HCl, dialysis membrane

Procedure: The dissolution test was performed with rotating basket apparatus according to Eur. Pharmacopoeia 9th Edition choosing hydrochloric acid to simulate the gastric fluid.
A first series of assays were performed placing the product into a dialysis membrane with adequate volumes of hydrochloric acid (1.0 or 2.0 ml). In this case, the dissolution medium was 0.01 N (pH=2) hydrochloric acid, as the dialysis membrane is not compatible with pH values lower than 2.
Experimental method: the dialysis membrane (Spectrum Labs Spectra/Por 3; MWCO; 3500 kDa) was hydrated for one night (16 hours) in deionized water before the test. […] The bags were closed and placed into the basket of the dissolution apparatus.
Then, the basket was immersed in 100 ml of 0.01 N HCl and the dissolution test was carried out at a temperature of 37° C. with a rotation speed of 75 rpm/min, withdrawing, at appropriate times, samples of dissolution phase that were immediately replaced with fresh solvent in order to maintain constant sink condition.
Experimental method: after hydration of the dialysis membrane for one night in deionized water, three exactly weighted samples of Feralgina® having different weights (range 20-30 mg) were dissolved with 1.0 ml (method A) or with 2.0 ml (method B) of hydrochloric acid (0.01 N) and the resulting solutions were placed into the hydrated dialysis membrane. The bags were perfectly closed and placed into the basket of the dissolution apparatus. […] The basket was immersed in 100 ml of 0.01 N HCl at a temperature of 37° C., with a rotation speed of 75 rpm/min, collecting samples of dissolution medium at appropriate times immediately replaced with fresh solvent in order to keep the dissolution constant (sink condition).
The dissolution tests of TecnoFERPlus were performed with two different experimental methods that involved, in one case, the use of the dialysis membrane and experimental conditions similarly to those followed for iron sulfate and iron bisglycinate with different volumes of hydrochloric acid 0.01 N, and in the second one, the use of TecnoFERPlus (capsule) without the dialysis membrane.

SMILES | amount of iron dissolved in the medium, of the total content (after 15 minutes, 1.0 ml 0.01 N HCl, dialysis membrane) | percentage of dissolved iron [1] | dissolution rate [min⁻¹]
NCC(=O)[O][Fe][O]C(=O)CN [Iron bis-glycinate chelate] | about 20% | about 60% | 0.378
O=S(=O)([O-])[O-].[Fe+2] [iron sulphate] | – | about 61% | 0.439
